As a reminder, the logP is a log measure of how a compound divides between an organic and an aqueous phase. A higher logP goes with a more lipophilic compound.

`Cc1ccc(S(=O)(=O)NC(=O)C(C)C)c([N+](=O)[O-])c1` showed a lipophilicity (logP) of 2.17.
For `CCC(CC)C(=O)Nc1cc(C)ccc1S(N)(=O)=O`, the lipophilicity (logP) was found to be 2.13.
On to `COc1ccc(S(=O)(=O)NC(=O)C(C)C)c(N)c1`, for which the logP came to 1.58.
`CC(C)C(=O)NS(=O)(=O)c1ccccc1[N+](=O)[O-]` showed a logP of 1.72.
Turning to `CCC(CC)C(=O)NS(=O)(=O)c1cc([N+](=O)[O-])cc(C(F)(F)F)c1`, the log partition coefficient (logP) was found to be 3.57.
`CCC(CC)C(=O)Nc1cc(OC)ccc1S(N)(=O)=O` registered a logP of 2.01.
`CCC(CC)C(=O)Nc1ccccc1S(N)(=O)=O` came in with a logP of 1.62.
In the case of `CC(C)C(=O)Nc1ccccc1S(N)(=O)=O` it was 0.97; in that of `COc1ccc(S(N)(=O)=O)c(NC(=O)C(C)C)c1`, 1.37.
Take `CCC(CC)C(=O)NS(=O)(=O)c1ccc(C)cc1[N+](=O)[O-]`: the logP is 2.67.
In the case of `CC(C)C(=O)NS(=O)(=O)c1ccccc1N`, the logP came to 1.17.
The compound `CCC(CC)C(=O)NS(=O)(=O)c1ccccc1N` gave a logP of 1.64.
On to `Cc1ccc(S(=O)(=O)NC(=O)C(C)C)c(N)c1`, for which the logP was 1.65.
In turn, `Cc1ccc(S(N)(=O)=O)c(NC(=O)C(C)C)c1` gave a logP of 1.45.
For `CC(C)C(=O)Nc1cc(Cl)ccc1S(N)(=O)=O`, the logP came to 1.87.
The compound `CCC(CC)C(=O)Nc1cc(C(F)(F)F)ccc1S(N)(=O)=O` gave a logP of 3.06.
In the case of `CCC(CC)C(=O)NS(=O)(=O)c1ccc(OC)cc1N` it was 2.03.
As to `CCC(CC)C(=O)NS(=O)(=O)c1ccccc1[N+](=O)[O-]`, the logP was 2.17.

The record behind these values is the OPERA property sets (Mansouri et al. 2018).
